Data: patent US4642341A, “Carbapenem antibiotics” (priority 1985, dated 1987)
Values after ≈ are worked out from the molar mass of the structure shown. Read-outs that look alike come from different tables or passages of the source.

Legend:
S. pneumoniae A-9585 = assay: Minimum Inhibitory Concentration, tube dilution; type: cell-based; conditions: Streptococcus pneumoniae, A9585, overnight 37° C.; table 6
S. pyogenes A-9604 = assay: Minimum Inhibitory Concentration, tube dilution; type: cell-based; conditions: Streptococcus pyogenes, A9604, overnight 37° C.; table 6
S. aureus A-9537 = assay: Minimum Inhibitory Concentration, tube dilution; type: cell-based; conditions: table 6
[1] = system: S. aureus A15097 (Meth-res.); assay: Minimum Inhibitory Concentration, tube dilution; type: cell-based; conditions: Staphylococcus aureus, table 6
S. faecalis A20688 = assay: Minimum Inhibitory Concentration, tube dilution; type: cell-based; conditions: Enterococcus faecalis, A20688, overnight 37° C., table 6
E. coli A20341-1 = assay: Minimum Inhibitory Concentration, tube dilution; type: cell-based; conditions: Escherichia coli, A203411, overnight 37° C.; table 6
K. pneumoniae A-9664 = assay: Minimum Inhibitory Concentration, tube dilution; type: cell-based; conditions: Klebsiella pneumoniae, A9664, overnight 37° C.; table 6
K. pneumoniae A20468 = assay: Minimum Inhibitory Concentration, tube dilution; type: cell-based; conditions: Klebsiella pneumoniae, A20468, overnight 37° C., table 6
P. mirabilis A-9900 = assay: Minimum Inhibitory Concentration, tube dilution; type: cell-based; conditions: Proteus mirabilis, A9900, overnight 37° C.; table 6
P. rettgeri A22424 = assay: Minimum Inhibitory Concentration, tube dilution; type: cell-based; conditions: Providencia rettgeri, overnight 37° C.
P. aeruginosa A-9843A = assay: Minimum Inhibitory Concentration, tube dilution; type: cell-based; conditions: Pseudomonas aeruginosa, A9843A, overnight 37° C.; table 6; read-out: MIC
E. cloacae A9659 = assay: Minimum Inhibitory Concentration, tube dilution; type: cell-based; conditions: Enterobacter cloacae, A9659, overnight 37° C., table 6
[2] = system: S. aureus A-9606 (Pen-res.); assay: Minimum Inhibitory Concentration, tube dilution; type: cell-based; conditions: Staphylococcus aureus, Pen-res; table 6
E. coli A15119 = assay: Minimum Inhibitory Concentration, tube dilution; type: cell-based; conditions: Escherichia coli, A15119, overnight 37° C.; table 6
P. vulgaris A21559 = assay: Minimum Inhibitory Concentration, tube dilution; type: cell-based; conditions: Proteus vulgaris, A21559, overnight 37° C.; table 6
S. marcescens A20019 = assay: Minimum Inhibitory Concentration, tube dilution; type: cell-based; conditions: Serratia marcescens, A20019, overnight 37° C.; table 6
P. aeruginosa A21213 = assay: Minimum Inhibitory Concentration, tube dilution; type: cell-based; conditions: Pseudomonas aeruginosa, A21213, overnight 37° C.; table 6; read-out: MIC
B. fragilis A22862 = assay: Minimum Inhibitory Concentration, tube dilution; type: cell-based; conditions: Bacteroides fragilis, overnight 37° C., table 6
P. aeruginosa A9843A = assay: animal or person; type: in vivo, mice; conditions: Pseudomonas aeruginosa, in Mus musculus, im, read-out: PD50 /treatment
Text: The PD50 (dose in mg/kg required to give protection to 50% of the infected mice) is indicated.

B. fragilis A22696 = assay: Minimum Inhibitory Concentration, tube dilution; type: cell-based; conditions: Bacteroides fragilis, overnight 37° C., table 6, read-out: MIC
E. cloacae A-9656 = assay: Minimum Inhibitory Concentration, tube dilution; type: cell-based; conditions: Enterobacter cloacae, A9656; overnight 37° C.; table 6

Row | SMILES | MIC (S. pneumoniae A-9585) | MIC (S. pyogenes A-9604) | MIC (E. coli A20341-1) | MIC (K. pneumoniae A-9664) | MIC (P. mirabilis A-9900) | MIC (P. aeruginosa A-9843A) | MIC (E. coli A15119) | MIC (P. vulgaris A21559) | MIC (S. marcescens A20019) | MIC (P. aeruginosa A21213) | MIC (B. fragilis A22862) | ED50 (P. aeruginosa A9843A) | also measured
1 | C[C@@H](O)[C@H]1C(=O)N2C(C(=O)[O-])=C(SC3CCCCC3[n+]3ccccc3)C[C@H]12 (single isomer, unassigned) [Ex. 16 (cmp. "B"), (5R,6S) 3-[2-[(R or S)-(1-pyridinium)]-1-(R or S)-cyclohexylthio]-6-[1-(R)-hydroxyethyl]-7-oxo-1-azabicyclo(3.2.0)hept-2-ene-2-carboxylate] | 0.002 mg/L (≈ 0.00515 µM) | 0.004 mg/L (≈ 0.0103 µM) | 0.06 mg/L (≈ 0.154 µM) | 0.13 mg/L (≈ 0.335 µM) | 0.13 mg/L (≈ 0.335 µM) | 32 mg/L (≈ 82.4 µM) | – | – | – | – | – | – | MIC (S. aureus A-9537; overnight 37° C.): 0.013 mg/L (≈ 0.0335 µM); MIC [1]: 0.5 mg/L (≈ 1.29 µM); MIC (S. faecalis A20688; read-out: MIC): 8 mg/L (≈ 20.6 µM); MIC (K. pneumoniae A20468; read-out: MIC): 0.5 mg/L (≈ 1.29 µM); MIC (P. rettgeri A22424; table 6, read-out: MIC): 4 mg/L (≈ 10.3 µM); MIC (E. cloacae A9659; read-out: MIC): 0.5 mg/L (≈ 1.29 µM)
2 | CSc1cc[n+](CCSC2=C(C(=O)[O-])N3C(=O)[C@H]([C@@H](C)O)[C@H]3C2)cc1 [Example 9, (5R) 3-[2-(4-methylthiopyridinio)ethylthio]-(6S)-[(1R)-hydroxyethyl]-7-oxo-1-azabicyclo[3.2.0]hept-2-ene-2-carboxylate] | 0.002 mg/L (≈ 0.00526 µM) | 0.001 mg/L (≈ 0.00263 µM) | 0.03 mg/L (≈ 0.0788 µM) | – | 0.06 mg/L (≈ 0.158 µM) | 4 mg/L (≈ 10.5 µM) | 0.03 mg/L (≈ 0.0788 µM) | 0.016 mg/L (≈ 0.0421 µM) | 0.06 mg/L (≈ 0.158 µM) | 2 mg/L (≈ 5.26 µM) | 0.06 mg/L (≈ 0.158 µM) | 3.1 mg/kg | MIC (S. aureus A-9537; Staphylococcus aureus, A9537, 50% serum, read-out: MIC): 0.016 mg/L (≈ 0.0421 µM); MIC (S. aureus A-9537; Staphylococcus aureus, A9537, overnight 37° C., read-out: MIC): 0.008 mg/L (≈ 0.021 µM); MIC [2]: 0.008 mg/L (≈ 0.021 µM); MIC (S. faecalis A20688): 0.25 mg/L (≈ 0.657 µM); MIC (K. pneumoniae A20468): 0.25 mg/L (≈ 0.657 µM); MIC (P. rettgeri A22424; table 6): 0.25 mg/L (≈ 0.657 µM); MIC (E. cloacae A9659): 0.25 mg/L (≈ 0.657 µM)
3 | CC(C[n+]1ccccc1)SC1=C(C(=O)[O-])N2C(=O)[C@H]([C@@H](C)O)[C@H]2C1 (single isomer, unassigned) [Ex. 15 (cmp. "A")] | – | – | 0.03 mg/L (≈ 0.0861 µM) | 0.06 mg/L (≈ 0.172 µM) | – | – | – | 0.03 mg/L (≈ 0.0861 µM) | 0.06 mg/L (≈ 0.172 µM) | 1 mg/L (≈ 2.87 µM) | 0.13 mg/L (≈ 0.373 µM) | 3.1 mg/kg | MIC (B. fragilis A22696): 0.25 mg/L (≈ 0.718 µM)
4 | C[C@@H](O)[C@H]1C(=O)N2C(C(=O)[O-])=C(SC3CCCCC3[n+]3ccccc3)C[C@H]12 (single isomer, unassigned) [Ex. 16 (cmp. "A"), (5R,6S) 3-[2-[(R or S)-(1-pyridinium)]-1-(R or S)-cyclohexylthio]-6-[1-(R)-hydroxyethyl]-7-oxo-1-azabicyclo(3.2.0)hept-2-ene-2-carboxylate] | – | – | – | – | – | – | 0.06 mg/L (≈ 0.154 µM) | – | 0.13 mg/L (≈ 0.335 µM) | – | – | – | MIC (E. cloacae A-9656): 0.5 mg/L (≈ 1.29 µM)
